Here are results for 108 compounds from a melting point compilation (Tetko et al.).

`CC(=O)OCC(=O)C1(O)C(C)CC2C3CCC4=CC(=O)C=CC4(C)C3(F)C(O)CC21C` (stereo not drawn) returned a melting point of 263 °C.

The compound `Cc1c(Cl)c(Cl)c(Cl)c(Cl)c1Cl` yielded a melting point of 225 °C.

`CC(=NO)c1cccs1` registered a melting point of 113 to 114 °C.

On to `FC(F)(F)N1C(F)(F)C(F)(F)OC(F)(F)C1(F)F`, for which the melting point was -80 °C.

`Cc1cc(Br)cnc1Cl` displayed a melting point of 40 to 44 °C.

Compound `CCOC(=O)ON=C(C(=O)c1ccccc1)c1ccccc1` displayed a melting point of 73 to 75 °C.

`O=C1c2ccccc2CC1Br` (stereo not drawn) displayed a melting point of 39 to 44 °C.

Compound `COc1cc2c(cc1OC)C(c1ccc(O)cc1)N(C(C)=O)CC2` (stereo not drawn) yielded a melting point of 145 to 147 °C.

`CC(=O)CCc1oc2c([N+](=O)[O-])cccc2c1-c1ccc(C)o1` showed a melting point of 103 °C.

`COc1cc2c(cc1OC)C(CCc1ccc(Cl)cc1)N(C)CC2` (stereo not drawn) came in with a melting point of 110 °C.

As to `O=C1c2ccccc2C(=O)c2c1cc1ccccc1c2O`, the melting point is 320 to 322 °C.

The compound `CCS(=O)(=O)c1ccccc1` registered a melting point of 42 °C.

`c1ccc(N=Nc2ccc(Nc3ccccc3)cc2)cc1` returned a melting point of 90 °C.

Regarding `O=C(CCl)c1ccc(Cl)c(Cl)c1`, the melting point came to 44 °C.

Consider `Cc1ccc(C(=O)[C@@H]2CCCC[C@H]2C(=O)O)cc1` (relative stereo), for which the melting point lay in the range of 168 to 171 °C.

`CC1(C)CC(=O)c2cc(-c3ccccc3)n(Cc3cccnc3)c2C1` had a melting point of 146 to 148 °C.

In turn, `FC(F)(F)c1cc(C(F)(F)F)[nH]n1` displayed a melting point of 82 to 84 °C.

With `CC(C)c1cccc(C(C)C)c1N`, the melting point is -45 °C.

Take `COc1cc2c(Cc3ccccc3)cncc2cc1O`: the melting point amounted to 207 °C.

`O=C(O)C=Cc1ccc(-c2ccc(F)cc2F)o1` came in with a melting point of 218 to 220 °C.

The compound `CCCCC(C=O)CC` (stereo not drawn) gave a melting point of -76 °C.

Compound `Nc1ccc2ccccc2c1N` had a melting point of 98.5 °C.

In turn, `O=C(Nc1ccccc1[N+](=O)[O-])C(F)(F)C(F)(F)C(F)(F)C(F)(F)C(F)(F)C(F)(F)C(F)(F)C(F)(F)F` displayed a melting point of 94 °C.

The compound `Ic1ccccc1CN1CCOCC1` had a melting point of 46 to 48 °C.

`O=C1NC2CCCC12` (stereo not drawn): the melting point is 45 to 50 °C.

Compound `O=C(O)c1c(C(F)(F)F)ccnc1Cl` yielded a melting point of 159 °C.

In turn, `C[Si](C)(C)OC1(C#N)c2ccccc2CCc2ccccc2C1(C#N)O[Si](C)(C)C` (stereo not drawn) gave a melting point of 88 °C.

Consider `O=C1C(=O)N(O)C2CCCCC2N1O` (stereo not drawn), for which the melting point was in the range of 243 to 245 °C.

In turn, `C=CC(=O)OCCCCCC` returned a melting point of -45 °C.

Turning to `C[C@@]12CCC[C@@H]1C1=C(CC2)[C@@]2(C)CCC(=O)CC2CC1` (stereo partly drawn), the melting point was in the range of 77 to 78 °C.

In the case of `COc1ccc(-c2occ(C(=O)c3ccccc3)c2S(=O)(=O)c2ccccc2)cc1`, the melting point was 110 °C.

As to `C=C(C)C(=O)OCC(C)C`, the melting point is -37 °C.

Compound `Cn1nc(C(=O)O)c2ccccc21` gave a melting point of 213 to 221 °C.

Regarding `O=C1c2ccccc2C(=O)c2c(Br)cccc21`, the melting point was 186 °C.

Compound `Nc1c(C=O)cnn1-c1ccc(Cl)cc1` displayed a melting point of 80 °C.

`COc1ccc(Cl)cc1C(=O)NCCc1ccc(S(=O)(=O)NC(=O)NC2CCCCC2)cc1` gave a melting point of 169 °C.

The compound `Cc1cc(-c2cc(C)n(C)n2)n[nH]1` had a melting point of 154 to 156 °C.

In turn, `CN(C)c1ccc(CCC2CCc3ccccc3N2)cc1` (stereo not drawn) returned a melting point of 68 to 68.5 °C.

`COc1ccc(-c2onc(C(=O)c3ccco3)c2S(=O)(=O)c2ccccc2)cc1` had a melting point of 150 °C.

On to `CCOC(=O)c1c(-c2ccc(Cl)cc2)csc1N`, for which the melting point lay within 111 to 112 °C.

`CCc1c2c(nc3ccc(OC(=O)N4CCC(N5CCCCC5)CC4)cc13)-c1cc3c(c(=O)n1C2)COC(=O)C3(O)CC` (stereo not drawn): the melting point came to 222 °C.

The compound `CCCCC(N)C(=O)O` (stereo not drawn) returned a melting point of 300 °C.

`N#Cc1nc(C#N)nc(C#N)n1` came in with a melting point of 119 °C.

`CCCCCCCCOC(=O)CCCCC` registered a melting point of -28 °C.

For `CC(CCC(=O)O)C1CCC2C3CCC4CCCCC4(C)C3CC(O)C12C` (stereo not drawn), the melting point was in the range of 186 to 188 °C.

In the case of `CC(=O)Nc1ccc(S(=O)(=O)Nc2ccc([N+](=O)[O-])cc2)cc1`, the melting point is 240 °C.

In the case of `COc1cc(C=CC(=O)O)c([N+](=O)[O-])cc1OC`, the melting point worked out at 270 °C.

`Cc1ccc2c(C)c(C)ccc2c1`: the melting point was 14 °C.

As to `Cc1ccc(C(=O)C(F)(F)C(F)(F)F)cc1`, the melting point turned out to be 4 °C.

On to `CCOC(=O)c1[nH]c(C)cc1C`, for which the melting point is 125 to 126 °C.

For `O=C(Cl)c1ccccc1I`, the melting point fell in the range of 30 to 32 °C.

For `COC(=O)CNC(SC)=C(C#N)C#N`, the melting point turned out to be 90 °C.

As for `COC(=O)c1ccc(N2CCCC2)nc1`, the melting point was in the range of 119 to 121 °C.

Compound `CCCCNC(=O)OCC#CI` returned a melting point of 66 °C.

Consider `CC1(C)CC(O)CC(C)(CN)C1` (stereo not drawn), for which the melting point was determined as 45.5 °C.

The compound `Cc1cc2nsnc2cc1Cl` displayed a melting point of 85 to 86 °C.

`CCOc1ccc(C(=O)OCCN(CC)CC)cc1` showed a melting point of 173 °C.

Compound `CC(=O)Nc1ccc(C=Cc2nc3cc([N+](=O)[O-])ccc3n2-c2ccc(C)cc2)cc1` yielded a melting point of 249 to 250 °C.

The compound `COC(=O)Cc1c(Cl)[nH]c(C)c1C(=O)OC` gave a melting point of 86 °C.

Compound `Oc1cc(C(F)(F)F)nc2cc(Cl)ccc12` registered a melting point of 280 °C.

`Cc1cccc(OCC(O)CNC(C)(C)C)c1C` (stereo not drawn) had a melting point of 57 °C.

For the compound `COc1ccc(C(=S)Nc2ccccc2)cc1`, the melting point is 157 °C.

`Cc1cnc2c(C(=O)O)c(Cl)ccc2c1` showed a melting point of 253 °C.

As to `Cl/C(=C\c1ccccc1)c1ccc2c3c(cccc13)CC2`, the melting point was 77 °C.

In turn, `O=C1CC2C(CC(OC(=O)c3ccccc3)C2CO)O1` (single isomer, unassigned; (-)) showed a melting point of 116 to 120 °C.

On to `COc1ccccc1C=CC(=O)c1ccc(O)cc1O`, for which the melting point stood at 177 °C.

`COc1ccccc1OC` came in with a melting point of 22.5 °C.

For the compound `O=C(Nc1ccccc1)Nc1ccccc1`, the melting point is 242 °C.

For the compound `CN1CCC(N(Cc2ccccc2)c2ccccc2)CC1`, the melting point worked out at 114 °C.

`COc1ccc(C=C(S)C(=O)O)cc1`: the melting point came to 140 °C.

The compound `CC(CC(=O)c1ccccc1)c1ccccc1` (stereo not drawn) gave a melting point of 70 °C.

The compound `CC(C)(C)OC(=O)C(C(=O)Cc1ccccc1)c1ccccc1` (stereo not drawn) showed a melting point of 82.2 to 83.5 °C.

For the compound `Cn1ccc2ccc(C=O)cc21`, the melting point was determined as 81 °C.

`O=C1C=C(Nc2cccc(O)c2)c2ccccc2C1=O` showed a melting point of 300 °C.

For the compound `Oc1ccc(O)c(C=NCCN=Cc2cc(O)ccc2O)c1`, the melting point fell in the range of 125 to 127 °C.

`COc1cc(Cl)ccc1[N+](=O)[O-]` came in with a melting point of 71 °C.

As to `SC1=NNC(c2ccccn2)S1` (stereo not drawn), the melting point fell in the range of 114 to 116 °C.

As to `Cc1cc(C(=O)CC#N)c(C(F)(F)F)o1`, the melting point lay within 75 to 77 °C.

As to `Cn1c(=O)c2[nH]cnc2n(C)c1=O`, the melting point turned out to be 270 °C.

With `FC(F)(F)c1cc(C=Cc2noc(CCl)n2)cc(C(F)(F)F)c1`, the melting point was in the range of 106 to 108 °C.

`CC1(c2ccccc2)CNCCO1` (stereo not drawn) gave a melting point of 36 °C.

On to `O=[N+]([O-])c1cccc(-c2nnc3n2NC(/C=C/c2ccccc2)S3)c1` (stereo not drawn), for which the melting point is 190 to 192 °C.

As to `COC(=O)C(C)Cl` (stereo not drawn), the melting point was -10 °C.

In the case of `Cc1ccc(C)n1-c1cc(Cl)c([N+](=O)[O-])cc1Cl`, the melting point was 82 to 84 °C.

`FC(F)(F)C#CC(F)(F)F` gave a melting point of -117 °C.

For `O=C(NC1C2C=CC(C2)C1C(=O)O)OCc1ccccc1` (stereo not drawn), the melting point fell in the range of 119 to 123 °C.

`BrC(Br)(Br)c1ccc2cc3ccc(C(Br)(Br)Br)nc3cc2n1` gave a melting point of 190 °C.

With `Brc1ccc2nccn2c1`, the melting point fell in the range of 76 to 78 °C.

In the case of `CCSc1nc(N)c(Br)c(O)n1`, the melting point came out at 300 °C.

Take `Cc1n[nH]c2c(=O)n(-c3ccccn3)c(C)nc12`: the melting point lay within 222 to 224 °C.

As to `Cc1nc(-c2cccc(CO)c2)no1`, the melting point is 56 to 58 °C.

Turning to `CC(C)(C)OC(=O)N1CCC(C#N)CC1`, the melting point amounted to 47 °C.

`CC(C)C1CCCCC1` yielded a melting point of -89.4 °C.

Compound `O=[N+]([O-])c1cc(F)c(F)cc1F` had a melting point of -11 °C.

On to `Cc1nc(C(F)(F)F)c(C(=O)O)cc1-c1nc(-c2ccccc2)cs1`, for which the melting point fell in the range of 188 to 190 °C.

`Clc1nc2ccccc2[nH]1` displayed a melting point of 200 °C.

`CC1(C)C(=O)NC1c1ccccc1` (stereo not drawn) displayed a melting point of 150 °C.

`CC1(C)CC(=O)C2=C(C1)Nc1c(ccc3ccccc13)C2c1ccc(Cl)cc1` (stereo not drawn) gave a melting point of 139 °C.

Take `O=C(O)Cc1ccc([N+](=O)[O-])cc1`: the melting point came to 154 °C.

As to `Cc1cc(C)c(O)cc1C`, the melting point came to 72 °C.

In turn, `Cc1cc(NN)nc2c1c(C)nn2C` came in with a melting point of 199 to 205 °C.

`COc1ccc(C(=O)c2cccc(OC)c2OC)cc1OC` returned a melting point of 118 to 120 °C.

For `CC(C)(C)c1cc(CC(=O)O)cc(C(C)(C)C)c1O`, the melting point lay in the range of 157 to 158 °C.

Take `Cc1cc(C)c(N=C=S)c(C)c1`: the melting point was in the range of 63 to 64 °C.

As to `CC12CCC(C1(C)C)C(CCC(Br)c1ccccc1)(C1(CCC(Br)c3ccccc3)C(=O)C3(C)CCC1C3(C)C)C2=O` (stereo not drawn), the melting point was 168 °C.

Turning to `CCC1=C(C)C2=CCC=CC2=N1`, the melting point turned out to be 64 °C.

Regarding `O=C(O)C1NCCS1` (stereo not drawn), the melting point was 182 °C.

As for `O=C(Oc1ccccc1)c1cccc(C(=O)Oc2ccccc2)c1`, the melting point was in the range of 136 to 139 °C.
